# Test results taken from patent publication US12390441B2, “Immunomodulating o-het/aryl azalides” (Zoetis Services LLC, priority 2020, dated 2025).
# “And” between values parts separate entries of the source, which are not always exact repeats. Equal values may be shown once.
# Key:
# Test in all cases: Whole blood assay, LPS stimulation, MSD cytokine detection
# TNF-α = assay type: cell-based; settings: fresh whole bovine blood
# Procedure: (§1) Compounds of the invention were evaluated against a positive control for their ability to inhibit LPS-induced IL-1p and TNF-α as an overall evaluation of relative potency and modulation of target pathways.
# (§2) In the bovine whole blood in vitro screening assay the inhibition of TNFα as induced by stimulation by lipopolysaccharide (LPS) and as measured by half the maximal inhibitory concentration (IC50) is recognized as the primary biomarker of immunomodulation potency upon pretreatment with the compounds of the invention. IL-1β is a mediator of the inflammation response and is involved in a number of cellular activities including proliferation, differentiation and apoptosis. IL-1β is also released upon cellular stress or cytotoxicity or upon TLR stimulation. In the bovine whole blood assay the stimulation of IL-1β release upon increasing concentration of test compound is seen as a potential cellular toxicity signal as induced by the test compound. In order to estimate a therapeutic index from the in vitro assay a differential between the TNFα IC50 (immunomodulation potency) versus the perceived cellular toxicity concentration (IL-1β release or overstimulation) was utilized. […] As the in vitro assay index approaches 1 it is proposed that the balance between immunomodulation and cytotoxicity would be too narrow in order to achieve an efficacious dose in vivo.
# IL-1β = assay type: cell-based, bovine; settings: fresh whole bovine blood, LPS stimulation; drug concentration giving overstimulation (OS) of IL-1β
# Procedure: as §1, §2
# IL-6 = assay type: cell-based; settings: fresh whole bovine blood
IC50 (TNF-α),IC50 (IL-6),SMILES,IL-1ß OS of LPS (IL-1β)
12 µM,18 µM,CC[C@H]1OC(=O)[C@H](C)[C@@H](O)[C@H](C)[C@@H](O[C@@H]2O[C@H](C)C[C@H](N(C)C(=O)N(C)c3ccccc3)[C@H]2Oc2ccc3ncccc3c2)[C@](C)(O)C[C@@H](C)CN(C)[C@H](C)[C@@H](O)[C@]1(C)O [Example C-35],>250 µM
4 µM,11 µM,CC[C@H]1OC(=O)[C@H](C)[C@@H](O[C@H]2C[C@@](C)(OC)[C@@H](O)[C@H](C)O2)[C@H](C)[C@@H](O[C@@H]2O[C@H](C)C[C@H](N(C)C)[C@H]2Oc2cc(OC)ccc2OC)[C@](C)(O)C[C@@H](C)CN(C)[C@H](C)[C@@H](O)[C@]1(C)O [Example A-35],40 µM
5 µM,10 µM,CC[C@H]1OC(=O)[C@H](C)[C@@H](O[C@H]2C[C@@](C)(OC)[C@](O)(CNCCOC)[C@H](C)O2)[C@H](C)[C@@H](O[C@@H]2O[C@H](C)C[C@H](N(C)C)[C@H]2Oc2ccc(F)cc2)[C@](C)(O)C[C@@H](C)CN[C@H](C)[C@@H](O)[C@]1(C)O [Example E-116],16 µM
70 µM,–,CCCNC[C@]1(O)[C@H](C)O[C@@H](O[C@H]2[C@H](C)[C@@H](O[C@@H]3O[C@H](C)C[C@H](NC)[C@H]3Oc3cc(OC)c(OC)c(OC)c3)[C@](C)(O)C[C@@H](C)CN[C@H](C)[C@@H](O)[C@](C)(O)[C@@H](CC)OC(=O)[C@@H]2C)C[C@@]1(C)OC [Example E-11],250 µM
125 µM,175 µM,CCCNC[C@]1(O)[C@H](C)O[C@@H](O[C@H]2[C@H](C)[C@@H](O[C@@H]3O[C@H](C)C[C@H](NC)[C@H]3Oc3ccc(C(N)=O)cc3)[C@](C)(O)C[C@@H](C)CN[C@H](C)[C@@H](O)[C@](C)(O)[C@@H](CC)OC(=O)[C@@H]2C)C[C@@]1(C)OC [Example E-110],>500 µM
–,18 µM and 19 µM,CC[C@H]1OC(=O)[C@H](C)[C@@H](O[C@H]2C[C@@](C)(OC)[C@](O)(CNCC3CC3)[C@H](C)O2)[C@H](C)[C@@H](O[C@@H]2O[C@H](C)C[C@H](N(C)C)[C@H]2Oc2ccccc2)[C@](C)(O)C[C@@H](C)CN[C@H](C)[C@@H](O)[C@]1(C)O [Example E-87],16 µM and 26 µM
5 µM,12 µM,CC[C@H]1OC(=O)[C@H](C)[C@@H](O)[C@H](C)[C@@H](O[C@@H]2O[C@H](C)C[C@H](N(C)C(=O)N(C)c3ccccc3)[C@H]2Oc2cc(F)c(OC)c(F)c2)[C@](C)(O)C[C@@H](C)CN[C@H](C)[C@@H](O)[C@]1(C)O [Example C-42],16 µM
20 µM,50 µM,CC[C@H]1OC(=O)[C@H](C)[C@@H](O)[C@H](C)[C@@H](O[C@@H]2O[C@H](C)C[C@H](N(C)C(=O)N3CCOc4ccccc43)[C@H]2Oc2ccccc2)[C@](C)(O)C[C@@H](C)CN[C@H](C)[C@@H](O)[C@]1(C)O [Example D-3],16 µM
14 µM,–,CC[C@H]1OC(=O)[C@H](C)[C@@H](O[C@H]2C[C@@](C)(OC)[C@](O)(CNC3CCC3)[C@H](C)O2)[C@H](C)[C@@H](O[C@@H]2O[C@H](C)C[C@H](NC)[C@H]2Oc2ccccc2)[C@](C)(O)C[C@@H](C)CN[C@H](C)[C@@H](O)[C@]1(C)O [Example E-126],40 µM
13 µM,52 µM,CC[C@H]1OC(=O)[C@H](C)[C@@H](O[C@H]2C[C@@](C)(OC)[C@](O)(CNCCN(C)C)[C@H](C)O2)[C@H](C)[C@@H](O[C@@H]2O[C@H](C)C[C@H](N(C)C)[C@H]2Oc2ccc(F)cc2)[C@](C)(O)C[C@@H](C)CN[C@H](C)[C@@H](O)[C@]1(C)O [Example E-114],40 µM
40 µM,148 µM,CC[C@H]1OC(=O)[C@H](C)[C@@H](O)[C@H](C)[C@@H](O[C@@H]2O[C@H](C)C[C@H](N(C)C(=O)N3CCOc4ccccc43)[C@H]2Oc2ccccc2)[C@](C)(O)C[C@@H](C)CN(C)[C@H](C)[C@@H](O)[C@]1(C)O [Example D-2],16 µM
4 µM,18 µM,CC[C@H]1OC(=O)[C@H](C)[C@@H](O[C@H]2C[C@@](C)(OC)[C@](O)(CNC(C)C)[C@H](C)O2)[C@H](C)[C@@H](O[C@@H]2O[C@H](C)C[C@H](N(C)C)[C@H]2Oc2ccccc2)[C@](C)(O)C[C@@H](C)CN[C@H](C)[C@@H](O)[C@]1(C)O [Example E-142],16 µM
5 µM,19 µM,CC[C@H]1OC(=O)[C@H](C)[C@@H](O[C@H]2C[C@@](C)(OC)[C@@H](O)[C@H](C)O2)[C@H](C)[C@@H](O[C@@H]2O[C@H](C)C[C@H](NC)[C@H]2Oc2cccc(S(=O)(=O)CC)c2)[C@](C)(O)C[C@@H](C)CN(C)[C@H](C)[C@@H](O)[C@]1(C)O [Example A-41],16 µM
19 µM,24 µM,CC[C@H]1OC(=O)[C@H](C)[C@@H](O[C@H]2C[C@@](C)(OC)[C@@H](O)[C@H](C)O2)[C@H](C)[C@@H](O[C@@H]2O[C@H](C)C[C@H](N(C)C)[C@H]2Oc2ccc3ccncc3c2)[C@](C)(O)C[C@@H](C)CN(C)[C@H](C)[C@@H](O)[C@]1(C)O [Example A-24],40 µM
17 µM,42 µM,CC[C@H]1OC(=O)[C@H](C)[C@@H](O[C@H]2C[C@@](C)(OC)[C@](O)(CNCCOC)[C@H](C)O2)[C@H](C)[C@@H](O[C@@H]2O[C@H](C)C[C@H](N(C)C)[C@H]2Oc2ccccc2)[C@](C)(O)C[C@@H](C)CN[C@H](C)[C@@H](O)[C@]1(C)O [Example E-145],>250 µM
40 µM,–,CCCNC[C@]1(O)[C@H](C)O[C@@H](O[C@H]2[C@H](C)[C@@H](O[C@@H]3O[C@H](C)C[C@H](NC)[C@H]3Oc3ccc(OCC)cc3)[C@](C)(O)C[C@@H](C)CN[C@H](C)[C@@H](O)[C@](C)(O)[C@@H](CC)OC(=O)[C@@H]2C)C[C@@]1(C)OC [Example E-12],40 µM
65 µM,–,CCCNC[C@]1(O)[C@H](C)O[C@@H](O[C@H]2[C@H](C)[C@@H](O[C@@H]3O[C@H](C)C[C@H](N(C)C)[C@H]3Oc3cnc(OC)nc3)[C@](C)(O)C[C@@H](C)CN[C@H](C)[C@@H](O)[C@](C)(O)[C@@H](CC)OC(=O)[C@@H]2C)C[C@@]1(C)OC [Example E-27],100 µM
75 µM,–,CC[C@H]1OC(=O)[C@H](C)[C@@H](O[C@H]2C[C@@](C)(OC)[C@](O)(CNCCN(C)C)[C@H](C)O2)[C@H](C)[C@@H](O[C@@H]2O[C@H](C)C[C@H](NC)[C@H]2Oc2ccccc2)[C@](C)(O)C[C@@H](C)CN[C@H](C)[C@@H](O)[C@]1(C)O [Example E-129],250 µM
5 µM,–,CC[C@H]1OC(=O)[C@H](C)[C@@H](O[C@H]2C[C@@](C)(OC)[C@](O)(CNn3cccn3)[C@H](C)O2)[C@H](C)[C@@H](O[C@@H]2O[C@H](C)C[C@H](NC)[C@H]2Oc2ccccc2)[C@](C)(O)C[C@@H](C)CN[C@H](C)[C@@H](O)[C@]1(C)O [Example E-139],6 µM
13 µM,–,CCCNC[C@]1(O)[C@H](C)O[C@@H](O[C@H]2[C@H](C)[C@@H](O[C@@H]3O[C@H](C)C[C@H](N(C)C)[C@H]3Oc3ccc(F)cc3)[C@](C)(O)C[C@@H](C)CN[C@H](C)[C@@H](O)[C@](C)(O)[C@@H](CC)OC(=O)[C@@H]2C)C[C@@]1(C)OC [Example E-48],40 µM
22 µM,–,CC[C@H]1OC(=O)[C@H](C)[C@@H](O)[C@H](C)[C@@H](O[C@@H]2O[C@H](C)C[C@H](N(C)C(=O)N(C)c3ccccc3)[C@H]2Oc2ccc(F)c(C(F)(F)F)c2)[C@](C)(O)C[C@@H](C)CN(C)[C@H](C)[C@@H](O)[C@]1(C)O [Example C-10],40 µM
30 µM,–,CCCNC[C@]1(O)[C@H](C)O[C@@H](O[C@H]2[C@H](C)[C@@H](O[C@@H]3O[C@H](C)C[C@H](NC)[C@H]3Oc3cccc(OC)c3)[C@](C)(O)C[C@@H](C)CN[C@H](C)[C@@H](O)[C@](C)(O)[C@@H](CC)OC(=O)[C@@H]2C)C[C@@]1(C)OC [Example E-94],40 µM
16 µM,–,CCCNC[C@]1(O)[C@H](C)O[C@@H](O[C@H]2[C@H](C)[C@@H](O[C@@H]3O[C@H](C)C[C@H](N(C)C)[C@H]3Oc3ccc(OC)cc3)[C@](C)(O)C[C@@H](C)CN[C@H](C)[C@@H](O)[C@](C)(O)[C@@H](CC)OC(=O)[C@@H]2C)C[C@@]1(C)OC [Example E-43],40 µM
30 µM,–,CCCNC[C@]1(O)[C@H](C)O[C@@H](O[C@H]2[C@H](C)[C@@H](O[C@@H]3O[C@H](C)C[C@H](NC)[C@H]3Oc3ccc(OC)c(F)c3)[C@](C)(O)C[C@@H](C)CN[C@H](C)[C@@H](O)[C@](C)(O)[C@@H](CC)OC(=O)[C@@H]2C)C[C@@]1(C)OC [Example E-10],40 µM

SMILES,IC50 (TNF-α),IC50 (IL-6),IL-1ß OS of LPS (IL-1β)
CCCNC[C@]1(O)[C@H](C)O[C@@H](O[C@H]2[C@H](C)[C@@H](O[C@@H]3O[C@H](C)C[C@H](N(C)Cc4ccc(OC)cc4)[C@H]3Oc3ccccc3)[C@](C)(O)C[C@@H](C)CN[C@H](C)[C@@H](O)[C@](C)(O)[C@@H](CC)OC(=O)[C@@H]2C)C[C@@]1(C)OC [Example E-147],6 µM,5 µM,4 µM
